Target: T1, human recombinant GPR65 (Homo sapiens, UniProt Q8IYL9)
T1 construct: host or cells: 1321N1 human astrocytoma cells (1321N1-hrGPR65)
Test: Human GPR65 cAMP HTRF antagonist assay
Assay type: cell-based
Conditions: not given
Description: In one preferred embodiment, the compound prevents the increase in cytoplasmic cAMP levels expected following GPR65 activation at acidic pH. This prevention of cAMP accumulation in turn prevents downstream signalling through ICER, as described above. The “Human GPR65 cyclic adenosine monophosphate (cAMP) Homogeneous Time Resolved Fluorescence (HTRF) antagonist assay”, or simply “cAMP assay”, as described in the accompanying examples, can be used to measure the potency of GPR65 modulators, which is expressed as the concentration of compound required to reduce the increase in cAMP concentration upon GPR65 activation by 50% (i.e. an IC50).
Human GPR65 Cyclic Adenosine Monophosphate (cAMP) Homogeneous Time Resolved Fluorescence (HTRF) Antagonist Assay Procedure
IC50 data was obtained by the following procedure:
1321N1 human astrocytoma cells stably expressing human recombinant GPR65 (1321N1-hrGPR65 cells, EuroscreenFast) were cultured according to the vendor's instructions.
Compounds were tested for their ability to antagonise GPR65, through measuring the concentration of cytoplasmic cAMP following treatment of the cells at a pH of 7.2 to activate GPR65 signalling and addition of the compound to be tested. The extent to which the expected rise in cAMP concentration upon GPR65 activation was suppressed by the added compound is indicative of its potency. The assay was carried out according to EuroscreenFast assay methodology as follows.
On the day of the assay, test compounds were added to 384-well, low volume, white microtiter plates by acoustic dispensing. KRH buffer (5 mM KCl, 1.25 mM MgSO4, 124 mM NaCl, 25 mM HEPES, 13.3 mM Glucose, 1.25 mM KH2PO4 and 1.45 mM CaCl2) was adjusted to pH 6.5, pH 7.6 and pH 8.4 by adding NaOH. 1321N1-hGPR65 cells were rapidly thawed and diluted in KRH, pH 7.6 prior to centrifugation at 300×g for 5 min and resuspension in assay buffer (KRH, pH 7.6, supplemented with 1 mM 3-isobutyl-1-methylxanthine (IBMX) and 200 μM ethylenediaminetetraacetic acid (EDTA)). Cells were added to assay plates at a density of 2,000 cells per well in a volume of 5 μl. Assay plates were briefly centrifuged at 100×g and then incubated at room temperature for 30 min. Cells were stimulated by the addition of 5 μL KRH, pH 6.5, to achieve an assay pH of 7.2, while control wells received 5 μl KRH, pH 8.4 to achieve an assay pH of 7.9. Assay plates were briefly centrifuged at 100×g and then incubated at room temperature for 30 min.
Accumulation of cAMP was detected by cAMP HTRF kit (Cisbio). d2-labeled cAMP and cryptate-labeled anti-cAMP antibody in Lysis and Detection Buffer (Cisbio) were added to assay plates, and the plates were incubated at room temperature for 1 h. HTRF measurements were performed using a Pherastar FSX instrument. Acceptor and donor emission signals were measured at 665 nm and 620 nm, respectively, and HTRF ratios were calculated as signal665 nm/signal620 nm×104. Data were normalised to high and low control values and fitted with 4-parameter logistic regression to determine hGPR65 IC50 values for the test compounds, which are shown in Table 1.

T1 sequence (Q8IYL9 whole entry): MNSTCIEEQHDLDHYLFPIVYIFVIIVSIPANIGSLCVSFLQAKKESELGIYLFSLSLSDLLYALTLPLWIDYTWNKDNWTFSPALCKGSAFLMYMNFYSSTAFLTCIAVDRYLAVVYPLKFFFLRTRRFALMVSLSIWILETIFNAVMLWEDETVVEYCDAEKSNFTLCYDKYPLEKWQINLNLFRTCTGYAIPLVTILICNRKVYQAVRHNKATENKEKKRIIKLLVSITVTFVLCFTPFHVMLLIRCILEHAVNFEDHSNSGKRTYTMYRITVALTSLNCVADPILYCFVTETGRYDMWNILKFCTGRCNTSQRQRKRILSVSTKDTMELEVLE

Structure (SMILES) | IC50 [nM]
O=C(Nc1ccc(C(F)(F)F)c(Cl)c1)N1C2CCC1c1cncnc1C2 (racemic) [Compound 2, (±)-N-(3-Chloro-4-(trifluoromethyl)phenyl)-6,7,8,9-tetrahydro-5H-5,8-epiminocyclohepta[d]pyrimidine-10-carboxamide] | < 500
O=C(Nc1ccc(Br)c(Cl)c1)N1C2CCC1c1cncnc1C2 (racemic) [Compound 7, (±)-N-(4-Bromo-3-chlorophenyl)-6,7,8,9-tetrahydro-5H-5,8-epiminocyclohepta[d]pyrimidine-10-carboxamide] | < 500
O=C(Nc1ccc(C(F)(F)F)c(Br)c1)N1C2CCC1c1cncnc1C2 (racemic) [Compound 15, (±)-N-(3-Bromo-4-(trifluoromethyl)phenyl)-6,7,8,9-tetrahydro-5H-5,8-epiminocyclohepta[d]pyrimidine-10-carboxamide] | < 500
O=C(Nc1ccc(Br)c(Br)c1)N1C2CCC1c1cncnc1C2 (racemic) [Compound 16, (±)-N-(3,4-Dibromophenyl)-6.7,8,9-tetrahydro-5H-5,8-epiminocyclohepta[d]pyrimidine-10-carboxamide] | < 500
O=C(Nc1ccc(Cl)c(Cl)c1)N1C2CCC1c1ncncc1C2 (racemic) [Compound 17, (±)-N-(3,4-Dichlorophenyl)-6,7,8,9-tetrahydro-5H-6,9-epiminocyclohepta[d]pyrimidine-10-carboxamide] | < 500
O=C(Nc1ccc(C(F)(F)F)c(Cl)c1)N1C2CCC1c1ncncc1C2 (racemic) [Compound 18, (±)-N-(3-Chloro-4-(trifluoromethyl)phenyl)-6,7,8,9-tetrahydro-5H-6,9-epiminocyclohepta[d]pyrimidine-10-carboxamide] | < 500
O=C(Nc1ccc(Cl)c(Cl)c1)N1C2CCC1c1cnc(=O)[nH]c1C2 (racemic) [Compound 31, (±)-N-(3,4-Dichlorophenyl)-2-oxo-2,5,6,7,8,9-hexahydro-1H-5,8-epiminocyclohepta[d]pyrimidine-10-carboxamide] | < 500
O=C(Nc1ccc(C(F)(F)F)c(Cl)c1)N1C2CCC1c1cnc(=O)[nH]c1C2 (racemic) [Compound 32, (±)-N-(3-Chloro-4-(trifluoromethyl)phenyl)-2-oxo-2,5,6,7,8,9-hexahydro-1H-5,8-epiminocyclohepta[d]pyrimidine-10-carboxamide] | < 500
O=C(Nc1ccc(C(F)(F)F)c(Cl)c1)N1C2CCC1c1ccncc1C2 (racemic) [Compound 35, (±)-N-(3-Chloro-4-(trifluoromethyl)phenyl)-6,7,8,9-tetrahydro-5H-5,8-epiminocyclohepta[c]pyridine-10-carboxamide] | < 500
O=C(Nc1ccc(Cl)c(Cl)c1)N1C2CCC1c1ccncc1C2 (racemic) [Compound 36, (±)-N-(3,4-Dichlorophenyl)-6,7,8,9-tetrahydro-5H-5,8-epiminocyclohepta[c]pyridine-10-carboxamide] | < 500

Same assay, conditions: 1321N1-hrGPR65 cells, assay pH 7.2, cAMP HTRF; read-out: hGPR65 IC50 (activity class)

Structure (SMILES) | IC50 [nM]
O=C(Nc1ccc(C(F)(F)F)cc1)N1C2CCC1c1cncnc1C2 (racemic) [Compound 1, (±)-N-(4-(Trifluoromethyl)phenyl)-6,7,8,9-tetrahydro-5H-5,8-epiminocyclohepta[d]pyrimidine-10-carboxamide] | 500 to 5000
O=C(Nc1ccc(Cl)c(C(F)(F)F)c1)N1C2CCC1c1cncnc1C2 (racemic) [Compound 3, (±)-N-(4-Chloro-3-(trifluoromethyl)phenyl)-6,7,8,9-tetrahydro-5H-5,8-epiminocyclohepta[d]pyrimidine-10-carboxamide] | 500 to 5000
O=C(Nc1cc(Cl)cc(Cl)c1)N1C2CCC1c1cncnc1C2 (racemic) [Compound 4, (±)-N-(3,5-Dichlorophenyl)-6,7,8,9-tetrahydro-5H-5,8-epiminocyclohepta[d]pyrimidine-10-carboxamide] | 500 to 5000
O=C(Nc1ccc(F)c(C(F)(F)F)c1)N1C2CCC1c1cncnc1C2 (racemic) [Compound 5, (±)-N-(4-Fluoro-3-(trifluoromethyl)phenyl)-6,7,8,9-tetrahydro-5H-5,8-epiminocyclohepta[d]pyrimidine-10-carboxamide] | > 5000
O=C(Nc1ccc(F)c(F)c1)N1C2CCC1c1cncnc1C2 (racemic) [Compound 6, (±)-N-(3,4-Difluorophenyl)-6,7,8,9-tetrahydro-5H-5,8-epiminocyclohepta[d]pyrimidine-10-carboxamide] | > 5000
COc1ccc(NC(=O)N2C3CCC2c2cncnc2C3)cc1Cl (racemic) [Compound 8, (±)-N-(3-Chloro-4-methoxyphenyl)-6,7,8,9-tetrahydro-5H-5,8-epiminocyclohepta[d]pyrimidine-10-carboxamide] | > 5000
N#Cc1ccc(NC(=O)N2C3CCC2c2cncnc2C3)cc1Cl (racemic) [Compound 11, (±)-N-(3-chloro-4-cyanophenyl)-6,7,8,9-tetrahydro-5H-5,8-epiminocyclohepta[d]pyrimidine-10-carboxamide] | 500 to 5000
O=C(Nc1ccc(Cl)c(Br)c1)N1C2CCC1c1cncnc1C2 (racemic) [Compound 12, (±)-N-(3-Bromo-4-chlorophenyl)-6,7,8,9-tetrahydro-5H-5,8-epiminocyclohepta[d]pyrimidine-10-carboxamide] | 500 to 5000
N#Cc1ccc(NC(=O)N2C3CCC2c2cncnc2C3)cc1Br (racemic) [Compound 13, (±)-N-(3-Bromo-4-cyanophenyl)-6,7,8,9-tetrahydro-5H-5,8-epiminocyclohepta[d]pyrimidine-10-carboxamide] | > 5000
O=C(Nc1ccc(Cl)c(Cl)c1)N1C2CCC1c1cnc(C(F)(F)F)nc1C2 (racemic) [Compound 24, (±)-N-(3,4-Dichlorophenyl)-2-(trifluoromethyl)-6,7,8,9-tetrahydro-5H-5,8-epiminocyclohepta[d]pyrimidine-10-carboxamide] | > 5000
Cc1ncc2c(n1)CC1CCC2N1C(=O)Nc1ccc(Cl)c(Cl)c1 (racemic) [Compound 25, (±)-N-(3,4-Dichlorophenyl)-2-methyl-6,7,8,9-tetrahydro-5H-5,8-epiminocyclohepta[d]pyrimidine-10-carboxamide] | > 5000
O=C(Nc1ccc(Cl)c(Cl)c1)N1C2CCC1c1cnc(-c3ccccc3)nc1C2 (racemic) [Compound 26, (±)-N-(3,4-Dichlorophenyl)-2-phenyl-6,7,8,9-tetrahydro-5H-5,8-epiminocyclohepta[d]pyrimidine-10-carboxamide] | 500 to 5000
O=C(Nc1ccc(C(F)(F)F)c(Cl)c1)N1C2CCC1c1cnc(C(F)(F)F)nc1C2 (racemic) [Compound 27, (±)-N-(3-Chloro-4-(trifluoromethyl)phenyl)-2-(trifluoromethyl)-6,7,8,9-tetrahydro-5H-5,8-epiminocyclohepta[d]pyrimidine-10-carboxamide] | > 5000
O=C(Nc1ccc(Cl)c(C(F)(F)F)c1)N1C2CCC1c1cnc(-c3ccccc3)nc1C2 (racemic) [Compound 28, (±)-N-(4-Chloro-3-(trifluoromethyl)phenyl)-2-phenyl-6,7,8,9-tetrahydro-5H-5,8-epiminocyclohepta[d]pyrimidine-10-carboxamide] | > 5000
O=C(Nc1ccc(C(F)(F)F)c(Cl)c1)N1C2CCC1c1cnc(-c3ccccc3)nc1C2 (racemic) [Compound 29, (±)-N-(3-Chloro-4-(trifluoromethyl)phenyl)-2-phenyl-6,7,8,9-tetrahydro-5H-5,8-epiminocyclohepta[d]pyrimidine-10-carboxamide] | 500 to 5000
O=C(Nc1ccc(Cl)c(Cl)c1)N1C2CCC1c1ccccc1C2 (racemic) [Compound 34, (±)-N-(3,4-Dichlorophenyl)-6,7,8,9-tetrahydro-5H-5,8-epiminobenzo[7]annulene-10-carboxamide] | 500 to 5000
O=C(Nc1ccc(C(F)(F)F)c(Cl)c1)N1C2CCC1c1cnccc1C2 (racemic) [Compound 37, (±)-N-(3-Chloro-4-(trifluoromethyl)phenyl)-6,7,8,9-tetrahydro-5H-6,9-epiminocyclohepta[c]pyridine-10-carboxamide] | 500 to 5000
